MIC data for one molecule are collected here from US10662164B2, “Non-beta lactam antibiotics” (University of Notre Dame du Lac, priority 2014, dated 2020).

Each structure is given as a SMILES string. Values after ≈ are worked out from the molar mass of the structure shown. Where two headings read alike, the source gives them in different places. Marks after values point to notes of the source that are not given here.

Test [1] has as its system E. faecium 106 (Van R). In words: MIC determination. In kind it is cell-based. As to conditions: Enterococcus faecium. The text has this: (§1) The ESKAPE organisms (E. faecium NCTC (ATCC 19734), S. aureus ATCC 29213, K. pneumonia ATCC 700603, A. baumannii ATCC 17961, P. aeruginosa ATCC 17853, E. aerogenes ATCC 35029) and E. coli ATCC 25922) in the initial screen, S. aureus ATCC 27660, S. epidermis ATCC 35547, S. haemolyticus ATCC 29970, S. oralis ATCC 9811, S. pyogenes ATCC 49399, B. cereus ATCC 13061, B. licheniformis ATCC 12759, and E. faecalis ATCC 29212 were purchased from the American Type Culture Collection (Manassas, Va., USA). S. aureus strains NRS100, NRS119, NRS120, VRS1, and VRS2 were obtained from the Network on Antimicrobial Resistance in Staphylococcus aureus (Chantilly, Va., USA). E. faecalis strains 201 and 99, and E. faecium strains 119-39A and 106 were collected from Wayne State University School of Medicine.
(§2) The procedure for MIC determination was the same as previously reported (Tran et al., Am. J. Clin. Dermatol. 2015; doi 10.1007/S40257-015-0125-9).

For test [2], the system named is E. faecium 119-39A (Van S). In words: MIC determination. Conditions: Enterococcus faecium. In kind it is cell-based.
Excerpt: as §1, §2

The test system of test [3] is S. epidermis ATCC 35547. As to the kind of experiment: MIC determination. In kind it is cell-based.
Excerpt: as §1, §2

Test [4] relates to S. oralis ATCC 9811. As to the kind of experiment: MIC determination. As to conditions: Streptococcus oralis, ATCC9811. In kind it is cell-based.
Excerpt: as §1, §2

The subject of test [5] is S. pyogenes ATCC 49399. In words: MIC determination. In kind it is cell-based. Conditions: Streptococcus pyogenes, ATCC49399.
Excerpt: as §1, §2

Test [6] concerns E. faecium NCTC 7171. As to the kind of experiment: MIC determination. In kind it is cell-based, Enterococcus faecium. As to conditions: Enterococcus faecium, NCTC7171.
Test [7] relates to S. aureus VRS1. As to conditions: vancomycin, data from reference 10; Table 5; cited from earlier work.
The subject of test [8] is S. epidermis ATCC 35547. As to conditions: vancomycin, data from reference 10; Table 5; cited from earlier work.
Test [9] relates to E. faecium 119-39A (Van S). As to conditions: vancomycin, data from reference 10; Table 5; cited from earlier work.
Test [10] relates to E. faecium 106 (Van R). Conditions: vancomycin, data from reference 10; Table 5; cited from earlier work.
Test [11] has as its system E. faecium C68. Conditions: vancomycin, data from reference 12; Table 5; cited from earlier work.

Regarding `CN[C@H](CC(C)C)C(=O)N[C@H]1C(=O)N[C@@H](CC(N)=O)C(=O)N[C@H]2C(=O)N[C@H]3C(=O)N[C@H](C(=O)N[C@H](C(=O)O)c4cc(O)cc(O)c4-c4cc3ccc4O)[C@H](O)c3ccc(c(Cl)c3)Oc3cc2cc(c3O[C@@H]2O[C@H](CO)[C@@H](O)[C@H](O)[C@H]2O[C@H]2C[C@](C)(N)[C@H](O)[C@H](C)O2)Oc2ccc(cc2Cl)[C@H]1O` [vancomycin, reference compound], the MIC in test [1] was 256 µg/mL (≈ 177 µM); in test [2] it was 0.5 µg/mL (≈ 0.345 µM); in test [3], 16 µg/mL (≈ 11 µM); in [4], 0.5 µg/mL (≈ 0.345 µM); in test [5] it was 0.6 µg/mL (≈ 0.414 µM); in [6] it was 0.5 µg/mL (≈ 0.345 µM). The MIC is 512 µg/mL (≈ 353 µM) in [7]; 16 µg/mL (≈ 11 µM) in test [8]; 0.5 µg/mL (≈ 0.345 µM) in [9]; 256 µg/mL (≈ 177 µM) in test [10]; 64^k μg/mL in test [11].

The term MIC denotes the lowest concentration found to suppress growth.
